According to US9527807B2, “Sulfonamide derivative and use thereof” (Takeda Pharmaceutical Company Limited, priority 2011, dated 2016):

Target: T1, AMPA receptor (human GluR1 flip/stargazin expressed in CHO-K1 cells) (Homo sapiens, UniProt P42261)
T1 construct: expressed in transfected cells; host or cells: CHO-K1
Assay: AMPA receptor function enhancing activity using calcium influx as index
Assay type: cell-based
Conditions: change in fluorescence level in 3 min, 100% = 3 mM glutamic acid + 300 μM cyclothiazide, 0% = 3 mM glutamic acid only
From the text: Human GluR1 flip cDNA was amplified by PCR using forward primer […] (SEQ ID NO: 1) and reverse primer […] (SEQ ID NO: 2) artificially synthesized using human brain-derived cDNA (BD Bio science) as a template. The amplified product was digested with restriction enzymes EcoRI, NotI (TAKARA SHUZO CO. LTD.), and incorporated into the same site of pcDNA3.1(+) (Invitrogen) to construct pcDNA3.1(+)/human GluR1 flip gene. Human stargazin cDNA was amplified by PCR using forward primer […] (SEQ ID NO: 3) and reverse primer. […] (SEQ ID NO: 4) artificially synthesized using human hippocampus cDNA as a template. The amplified product was digested with restriction enzymes XhoI, BamHI (TAKARA SHUZO CO. LTD.), and incorporated into the same site of pcDNA3.1(−) (Invitrogen) to construct pcDNA3.1 Zeo(−)/human stargazin gene.
(2) Construction of GluR1 Flip/Stargazin Expressing Cell
CHO-K1 cells passaged in a culture medium (Ham's F12 medium (Invitrogen) added with 10% inactivated fetal bovine serum (Morgate) and penicillin, streptomycin (Invitrogen)) were detached with 0.05% trypsin, 0.53 mM EDTA (Invitrogen) diluted with D-PBS(−). The detached cells were suspended in a culture medium, and recovered by a centrifugation operation at 1,000 rpm. The recovered cells were suspended again in D-PBS(−), and added to a 0.4 cm electroporation cuvette (BioRad). pcDNA3.1(+)/human GluR1 flip gene (5 μg) and pcDNA3.1 Zeo(−)/human stargazin gene (15 μg) were added, and the mixture was introduced into CHO-K1 cells using Gene Pulser II (BioRad) under the conditions of 950 μFd, […]. The introduced cells were cultured overnight in a culture medium and, the next day, plated in a 96 well plate at 250 cells/well using a selection medium (culture medium added with Zeocin (Invitrogen) to 250 μg/mL). Clones showing drug resistance were selected, and GluR1 flip/stargazin expressing clones were selected by an assay method using calcium influx as an index as shown below.
(3) Measurement Method of AMPA Receptor Function Enhancing Activity of Compound Using Calcium Influx as Index
CHO-K1/GluR1 flip/stargazin expressing cells were plated on a 384 well black transparent bottom plate (FMAT4307723) at 0.5×10^4 cells/well, and cultured in a 37° C., CO2 incubator (SANYO Electric Co., Ltd.) for 2 days. The medium in the cell plate was removed, and a calcium indicator (Calcium 4 Assay Kit, Molecular. Devices) containing 1.25 mM probenecid (Invitrogen) was added at 25 μL/well and the well was left standing in 37° C., CO2 incubator for 1 hr. The cell plate was set in FLITRtetra (Molecular Devices), a mixture (12.5 μL) of 9 mM glutamic acid diluted with assay buffer B (HBSS (Invitrogen), 0.1% BSA, 10 mM HEPES) and a test compound was added, and the amount of change in fluorescence level in 3 min was measured. In the definition here, the amount of change in fluorescence level of well added with glutamic acid at final concentration 3 mM and 300 μM cyclothiazide (TOCRIS) is 100%, the amount of change in fluorescence level of well added only with glutamic acid at final concentration 3 mM is 0%, and the compound activity was calculated according to the following formula. activity (%)=(X−C)/(T−C)×100 T: amount of change in fluorescence level of well added with glutamic acid at final concentration 3 mM and 300 μM cyclothiazide C: amount of change in fluorescence level of well added only with glutamic acid at final concentration 3 mM X: amount of change in fluorescence level of well added with to test compound

T1 sequence (P42261 19-906 isoform P42261-2 limits assumed): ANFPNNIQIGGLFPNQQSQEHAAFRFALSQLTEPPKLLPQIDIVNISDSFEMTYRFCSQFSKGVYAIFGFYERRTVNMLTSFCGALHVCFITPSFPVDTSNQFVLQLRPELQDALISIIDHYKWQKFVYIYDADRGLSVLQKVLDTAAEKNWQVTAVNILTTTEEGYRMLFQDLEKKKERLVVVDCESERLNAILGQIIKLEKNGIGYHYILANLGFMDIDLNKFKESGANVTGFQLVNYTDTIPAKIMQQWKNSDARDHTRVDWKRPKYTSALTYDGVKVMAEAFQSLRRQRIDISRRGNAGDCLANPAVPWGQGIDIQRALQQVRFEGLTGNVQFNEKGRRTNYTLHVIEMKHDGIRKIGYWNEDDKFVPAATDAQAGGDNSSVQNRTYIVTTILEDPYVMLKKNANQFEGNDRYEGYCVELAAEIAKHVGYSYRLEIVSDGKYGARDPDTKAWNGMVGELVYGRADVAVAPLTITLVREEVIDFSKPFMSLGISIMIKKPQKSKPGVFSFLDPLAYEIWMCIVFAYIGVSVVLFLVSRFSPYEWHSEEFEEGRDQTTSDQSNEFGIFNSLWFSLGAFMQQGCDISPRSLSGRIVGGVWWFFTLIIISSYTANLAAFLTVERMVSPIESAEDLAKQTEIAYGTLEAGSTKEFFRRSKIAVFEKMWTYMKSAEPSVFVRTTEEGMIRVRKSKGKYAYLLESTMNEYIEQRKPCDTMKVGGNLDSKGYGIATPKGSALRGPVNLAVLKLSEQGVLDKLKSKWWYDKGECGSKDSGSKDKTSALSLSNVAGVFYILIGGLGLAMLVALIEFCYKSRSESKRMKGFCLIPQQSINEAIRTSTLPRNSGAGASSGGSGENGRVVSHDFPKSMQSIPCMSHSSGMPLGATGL
T1 sequence (Q9Y698 whole entry partner): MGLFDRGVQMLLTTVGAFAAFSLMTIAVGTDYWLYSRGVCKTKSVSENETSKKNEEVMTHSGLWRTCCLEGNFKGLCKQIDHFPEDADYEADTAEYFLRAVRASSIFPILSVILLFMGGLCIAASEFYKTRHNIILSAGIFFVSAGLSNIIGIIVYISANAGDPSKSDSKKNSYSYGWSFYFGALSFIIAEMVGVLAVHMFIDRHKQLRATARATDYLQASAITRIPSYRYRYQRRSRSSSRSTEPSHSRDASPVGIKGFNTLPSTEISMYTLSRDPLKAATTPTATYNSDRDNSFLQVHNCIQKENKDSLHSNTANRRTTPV

activity (%) | SMILES
74 | CS(=O)(=O)N[C@H]1COCC[C@@H]1COc1ccc(-n2cc(Cl)cn2)cc1F [Example 207, N-[(3R,4S)-4-{[4-(4-chloro-1H-pyrazol-1-yl)-2-fluorophenoxy]methyl}tetrahydro-2H-pyran-3-yl]methanesulfonamide]
77 | CCS(=O)(=O)N[C@H]1CCOC[C@@H]1COc1ccc(C(C)C)cc1 (relative stereo) [Example 34, trans-N-{3-[(4-isopropylphenoxy)methyl]tetrahydro-2H-pyran-4-yl}ethanesulfonamide]
46 | CCS(=O)(=O)N[C@H]1CCN(C(C)=O)C[C@@H]1COc1ccc(OC(F)F)cc1 (relative stereo) [Example 1, trans-N-[1-acetyl-3-{[4-(difluoromethoxy)phenoxy]methyl}piperidin-4-yl]ethanesulfonamide]
93 | CCS(=O)(=O)N[C@H]1CCC(F)(F)C[C@@H]1COc1ccc(-c2cccn(C)c2=O)cc1 [Example 267, N-[(1S,2S)-4,4-difluoro-2-{[4-(1-methyl-2-oxo-1,2-dihydropyridin-3-yl)phenoxy]methyl}cyclohexyl]ethanesulfonamide]
81 | CCS(=O)(=O)N[C@H]1CCOC[C@@H]1COc1ccc(OC(F)F)cc1 (single isomer, unassigned) [Example 124, trans-N-[3-{[4-(difluoromethoxy)phenoxy]methyl}tetrahydro-2H-pyran-4-yl]ethanesulfonamide]
82 | CCS(=O)(=O)N[C@H]1CCOC[C@@H]1COc1ccc(-n2cccn2)cc1 (single isomer, unassigned) [Example 6, trans-N-[3-{[4-(1H-pyrazol-1-yl)phenoxy]methyl}tetrahydro-2H-pyran-4-yl]ethanesulfonamide]
59 | CS(=O)(=O)N[C@@H]1CCOC[C@H]1COc1ccc(-c2ncc(Cl)cc2F)cc1 (single isomer, unassigned) [Example 382, N-[(3S,4R)-3-{[4-(5-chloro-3-fluoropyridin-2-yl)phenoxy]methyl}tetrahydro-2H-pyran-4-yl]methanesulfonamide or N-[(3R,4S)-3-{[4-(5-chloro-3-fluoropyridin-2-yl)phenoxy]methyl}tetrahydro-2H-pyran-4-yl]methanesulfonamide]
64 | Cc1cc(-c2ccc(OC[C@H]3COCC[C@@H]3NS(C)(=O)=O)cc2)nn1C (racemic) [Example 281, N-[(3RS,4SR)-3-{[4-(1,5-dimethyl-1H-pyrazol-3-yl)phenoxy]methyl}tetrahydro-2H-pyran-4-yl]methanesulfonamide]
91 | O=S(=O)(N[C@H]1CCOC[C@@H]1COc1ccc(-c2ncc(Cl)cc2F)cc1)C1CC1 [Example 256, N-[(3R,4S)-3-{[4-(5-chloro-3-fluoropyridin-2-yl)phenoxy]methyl}tetrahydro-2H-pyran-4-yl]cyclopropanesulfonamide]
70 | CCS(=O)(=O)N[C@H]1CCN(C(C)=O)C[C@@H]1COc1ccc(C(C)C)cc1 (single isomer, unassigned) [Example 94, trans-N-[1-acetyl-3-{[4-(1-methylethyl)phenoxy]methyl}piperidin-4-yl]ethanesulfonamide]
101 | CS(=O)(=O)N[C@H]1CCC(F)(F)C[C@@H]1COc1ccc(-c2ncc(C#N)cc2F)cc1 [Example 215, N-[(1S,2S)-2-{[4-(5-cyano-3-fluoropyridin-2-yl)phenoxy]methyl}-4,4-difluorocyclohexyl]methanesulfonamide]
95 | CCS(=O)(=O)N[C@H]1CCOC[C@@H]1COc1ccc(-c2cccnc2)cc1 (relative stereo) [Example 138, trans-N-{3-[(4-pyridin-3-ylphenoxy)methyl]tetrahydro-2H-pyran-4-yl}ethanesulfonamide]
104 | O=S(=O)(N[C@H]1COCC[C@@H]1COc1ccc(-c2ccc(F)cn2)cc1F)C1CC1 [Example 264, N-[(3R,4S)-4-{[2-fluoro-4-(5-fluoropyridin-2-yl)phenoxy]methyl}tetrahydro-2H-pyran-3-yl]cyclopropanesulfonamide]
81 | CCS(=O)(=O)N[C@H]1CCC(=O)C[C@@H]1COc1ccc(C(C)C)cc1 (relative stereo) [Example 39, trans-N-[2-{[4-(1-methylethyl)phenoxy]methyl}-4-oxocyclohexyl]ethanesulfonamide]
73 | CCS(=O)(=O)N[C@H]1COCC[C@@H]1COc1ccc(C(C)C)cc1 (relative stereo) [Example 95, trans-N-[4-{[4-(1-methylethyl)phenoxy]methyl}tetrahydro-2H-pyran-3-yl]ethanesulfonamide]
70 | CCS(=O)(=O)N[C@H]1CCOC[C@@H]1COc1ccc(-c2ccc(C(F)(F)F)cn2)cc1 (racemic) [Example 351, N-[(3RS,4SR)-3-({4-[5-(trifluoromethyl)pyridin-2-yl]phenoxy}methyl)tetrahydro-2H-pyran-4-yl]ethanesulfonamide rac]
38 | CS(=O)(=O)N[C@H]1C[C@H]2CC[C@H](O2)[C@@H]1COc1ccc(-c2ccc(C#N)cn2)cc1 (mixture of isomers) [Example 508, N-((1S,2SR,3SR,5R)-2-((4-(5-cyanopyridin-2-yl)phenoxy)methyl)-8-oxabicyclo[3.2.1]oct-3-yl)methanesulfonamide]
85 | CCS(=O)(=O)N[C@H]1COCC[C@@H]1COc1ccc(-c2ccc(Cl)cn2)cc1 [Example 209, N-[(3R,4S)-4-{[4-(5-chloropyridin-2-yl)phenoxy]methyl}tetrahydro-2H-pyran-3-yl]ethanesulfonamide]
75 | CCS(=O)(=O)N[C@H]1CCCC[C@@H]1COc1ccc(C(C)=O)cc1 (relative stereo) [Example 89, trans-N-{2-[(4-acetylphenoxy)methyl]cyclohexyl}ethane-sulfonamide]
87 | Cc1cc(-c2ccc(OC[C@H]3COCC[C@@H]3NS(C)(=O)=O)cc2F)no1 [Example 247, N-[(3R,4S)-3-{[3-fluoro-4-(5-methylisoxazol-3-yl)phenoxy]methyl}tetrahydro-2H-pyran-4-yl]methanesulfonamide]
69 | CCS(=O)(=O)N[C@H]1CCCC[C@@H]1COc1ccc(OC(F)F)cc1 (relative stereo) [Example 52, trans-N-[2-{[4-(difluoromethoxy)phenoxy]methyl}cyclo-hexyl]ethanesulfonamide]
95 | CCS(=O)(=O)N[C@H]1CCOC[C@@H]1COc1ccc(-c2ccc(C#N)cn2)cc1 [Example 297, N-[(3R,4S)-3-{[4-(5-cyanopyridin-2-yl)phenoxy]methyl}tetrahydro-2H-pyran-4-yl]ethanesulfonamide]
79 | CN(C)S(=O)(=O)N[C@H]1CCOC[C@@H]1COc1ccc(-n2cc(Cl)cn2)cc1 (racemic) [Example 279, N′-[(3RS,4SR)-3-{[4-(4-chloro-1H-pyrazol-1-yl)phenoxy]methyl}tetrahydro-2H-pyran-4-yl]-N,N-dimethylsulfamide]
78 | CCS(=O)(=O)N[C@H]1CCC(F)(F)C[C@@H]1COc1ccc(-n2cc(C)cn2)cc1 (relative stereo) [Example 141, trans-N-[4,4-difluoro-2-{[4-(4-methyl-1H-pyrazol-1-yl)phenoxy]methyl}cyclohexyl]ethanesulfonamide]
